From US5607970A, “ACAT inhibitory agent” (priority 1991, dated 1997)
Read-outs that look alike come from different tables or passages of the source.

Key:
[1] = biological target: T1, ACAT (AcylCoA-Cholesterolacyltransferase) (Oryctolagus cuniculus, UniProt G1SFD9); assay: ACAT inhibitory activity in test tube (method of Heider et al., [1-14C]oleylCoA, small intestine epithelium microsome fraction); format: biochemical, rabbit; conditions: read-out: Inhibitory Ratio (%)
T1 construct: from tissue; host or cells: rabbit small intestine epithelium, microsome fraction
T1 sequence (G1SFD9 1-524): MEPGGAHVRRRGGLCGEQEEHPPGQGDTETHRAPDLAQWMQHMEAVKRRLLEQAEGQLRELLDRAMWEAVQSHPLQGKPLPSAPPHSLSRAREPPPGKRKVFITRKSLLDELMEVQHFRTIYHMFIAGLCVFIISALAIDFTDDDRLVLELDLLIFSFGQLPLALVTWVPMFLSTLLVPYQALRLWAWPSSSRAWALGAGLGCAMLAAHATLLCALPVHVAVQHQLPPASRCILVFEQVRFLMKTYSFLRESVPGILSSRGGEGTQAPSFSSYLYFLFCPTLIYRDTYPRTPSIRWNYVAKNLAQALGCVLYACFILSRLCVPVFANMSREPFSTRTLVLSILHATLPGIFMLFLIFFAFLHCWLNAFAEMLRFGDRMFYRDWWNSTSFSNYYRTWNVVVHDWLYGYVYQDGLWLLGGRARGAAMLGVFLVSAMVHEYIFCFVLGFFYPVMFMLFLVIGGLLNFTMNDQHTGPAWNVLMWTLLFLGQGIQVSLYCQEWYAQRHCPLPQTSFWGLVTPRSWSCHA
Protocol: That is, a rabbit is fed a 1% cholesterol diet for 3 weeks followed by dissection and extraction of the small intestine. After peeling off the small intestine epithelium and crushing with a homogenizer, incompletely crushed solids are removed by centrifugal separation. […] After allowing the reaction to proceed for the prescribed amount of time, 7 ml of a mixture of dichloromethane: methanol (2:1) is added to the reaction mixture and thoroughly mixed. The reaction, is stopped and the dichloromethane layer is removed, after which the cholesterol oleate portion is separated from that fraction by silica gel TLC (developing solution: petroleum ether:diethyl ether=95:5). The separated portion is scraped off and the radioactivity is measured using a liquid scintillation counter to calculate ACAT activity.

[2] = tested on: ACAT activity of small intestine epithelial cells; assay: Animal test: ACAT activity of small intestine epithelial cells after administration in feed; format: in vivo; conditions: male hamsters, 1 mg/animal/day mixed in feed
Protocol: A test substance according to the present invention was administered to hamsters (males, body weight: 100 g) at a dose of 1 mg/animal/day by mixing in the same to their feed. The ACAT activity of small intestine epithelial cells was then measured after one week and after two weeks.

[3] = Concentration 20 μg/ml, rabbit small intestine microsome ACAT
[4] = Concentration 50 μg/ml, rabbit small intestine microsome ACAT
[5] = Concentration 100 μg/ml, rabbit small intestine microsome ACAT
[6] = Concentration 150 μg/ml, rabbit small intestine microsome ACAT
[7] = Concentration 200 μg/ml, rabbit small intestine microsome ACAT

Row | inhibition at 20 µg/mL [1, 3] [%] | inhibition at 50 µg/mL [1, 4] [%] | inhibition at 100 µg/mL [1, 5] [%] | inhibition at 150 µg/mL [1, 6] [%] | inhibition at 200 µg/mL [1, 7] [%] | SMILES | ACAT Inhibitory Ratio (%) After 1 week [2] [%] | ACAT Inhibitory Ratio (%) After 2 weeks [2] [%] | inhibition at 20 µg/mL [1] [%] | inhibition at 50 µg/mL [1] [%] | inhibition at 100 µg/mL [1] [%] | inhibition at 150 µg/mL [1] [%] | inhibition at 200 µg/mL [1] [%]
1 | 28 | 54 | 74 | 86 | 93 | CCCCC/C=C\C/C=C\CCCCCCCC(=O)OCC(O)CO (stereo not shown) | 59 | 53 | – | – | – | – | –
2 | – | – | – | – | – | CCCCCCCC/C=C\CCCCCCCC(=O)OCC(O)CO (stereo not shown) | 60 | 52 | 30 | 59 | 81 | 92 | 100
3 | – | – | – | – | – | CCCCCCCC/C=C\CCCCCCCC(=O)OC(CO)CO | 64 | 56 | 32 | 62 | 82 | 94 | 100
4 | – | – | – | – | – | CC/C=C\C/C=C\C/C=C\CCCCCCCC(=O)OCC(O)CO (stereo not shown) [1-linolenoylglycerol] | 57 | 51 | 25 | 50 | 76 | 86 | 92
5 | 24 | 53 | 72 | 84 | 91 | CCCCCC/C=C\CCCCCCCC(=O)OCC(O)CO (stereo not shown) [1-palmitooleylglycerol] | 57 | 54 | – | – | – | – | –
6 | 26 | 56 | 75 | 86 | 94 | CCCCCCCCCCCCCCCC(=O)OCC(O)CO (stereo not shown) [1-palmitoylglycerol] | 56 | 50 | – | – | – | – | –
7 | – | – | – | – | – | CCCCCCCCCCCCCCCCCC(=O)OCC(O)CO (stereo not shown) [1-stearoylglycerol] | 31 | 29 | 15 | 29 | 38 | 45 | 49
